Read-outs that look alike come from different tables or passages of the source.
Legend:
[1] = biological target: GSK3α (GST-full length GSK3α) (Homo sapiens (Human), UniProt P49840); assay: GSK3α TR-FRET kinase assay; assay type: biochemical
Procedure, shortened: (§1)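 Compound was preincubated 30 min with 1 nM GST-GSK3 enzyme. Reaction ran 100 min at ambient temperature in Tris pH 7.5/MgCl2 with 200 nM biotinylated pS645-glycogen synthase 631-650 peptide and ATP (4 μM GSK3α, 2 μM GSK3b, or 1 mM). The EDTA-stopped reaction was read by TR-FRET (Tb-anti-pSer641/streptavidin-d2), and IC50s were fitted.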

[2] = biological target: GSK3b (GST-full length GSK3b) (Homo sapiens (Human), UniProt P49841); assay: GSK3b TR-FRET kinase assay; assay type: biochemical
GSK3b (GST-full length GSK3b), sequence (P49841 whole entry): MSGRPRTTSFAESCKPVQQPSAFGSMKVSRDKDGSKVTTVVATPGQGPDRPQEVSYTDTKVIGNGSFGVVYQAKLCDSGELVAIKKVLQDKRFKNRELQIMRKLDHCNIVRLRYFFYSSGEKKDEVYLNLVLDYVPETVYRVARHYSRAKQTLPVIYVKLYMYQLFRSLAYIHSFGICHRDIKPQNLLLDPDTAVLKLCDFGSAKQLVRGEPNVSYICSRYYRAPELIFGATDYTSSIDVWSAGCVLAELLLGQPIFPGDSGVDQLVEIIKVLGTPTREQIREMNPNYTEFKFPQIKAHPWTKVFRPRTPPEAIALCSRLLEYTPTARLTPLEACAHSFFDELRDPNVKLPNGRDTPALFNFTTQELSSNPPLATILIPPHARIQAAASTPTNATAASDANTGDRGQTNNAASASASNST
Procedure, shortened: as §1

[3] = 1 nM GSK3α, 4 μM ATP, 30 minute preincubation, Table 16, read-out: GSK3-A TR-FRET BIOCHEMICAL (TR-FRET)
[4] = GSK3-A (TR-FRET 1 mM ATP), GMean, IC50, 1 mM ATP, geometric mean
[5] = 1 nM GSK3b, 2 μM ATP, 30 minute preincubation, Table 16, read-out: GSK3-B TR-FRET BIOCHEMICAL (TR-FRET)
[6] = GSK3-B (TR-FRET 1 mM ATP), GMean, IC50, 1 mM ATP, geometric mean
[7] = 1 nM GSK3α, 4 μM ATP, 30 minute preincubation, Table 16, read-out: GSK3-A TR-FRET BIOCHEMICAL (TR-FRET), IC50
[8] = 1 nM GSK3b, 2 μM ATP, 30 minute preincubation, Table 16, read-out: GSK3-B TR-FRET BIOCHEMICAL (TR-FRET), IC50
[9] = 1 nM GSK3α, 4 μM ATP, 30 minute preincubation, read-out: GSK3-A TR-FRET BIOCHEMICAL (TR-FRET), IC50
[10] = 1 nM GSK3b, 2 μM ATP, 30 minute preincubation, read-out: GSK3-B TR-FRET BIOCHEMICAL (TR-FRET), IC50

GSK3α (GST-full length GSK3α), sequence (P49840 whole entry): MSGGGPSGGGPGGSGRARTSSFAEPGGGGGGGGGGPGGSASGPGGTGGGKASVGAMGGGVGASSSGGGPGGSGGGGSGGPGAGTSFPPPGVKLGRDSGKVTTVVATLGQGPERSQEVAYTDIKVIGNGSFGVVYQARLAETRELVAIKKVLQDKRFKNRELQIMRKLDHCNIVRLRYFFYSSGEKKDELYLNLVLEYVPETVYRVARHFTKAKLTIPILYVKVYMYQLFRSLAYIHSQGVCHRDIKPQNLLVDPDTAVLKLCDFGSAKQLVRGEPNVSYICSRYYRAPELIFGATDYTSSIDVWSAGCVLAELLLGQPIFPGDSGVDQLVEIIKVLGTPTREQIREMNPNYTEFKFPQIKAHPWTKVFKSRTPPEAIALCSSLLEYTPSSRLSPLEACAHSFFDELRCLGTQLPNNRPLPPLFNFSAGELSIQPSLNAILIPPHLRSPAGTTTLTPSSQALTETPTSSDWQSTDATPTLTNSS

Row | SMILES | IC50 [1, 3] [µM] | IC50 [1, 4] [µM] | IC50 [2, 5] [µM] | IC50 [2, 6] [µM] | IC50 [1, 7] [µM] | IC50 [2, 8] [µM] | IC50 [1, 9] [µM] | IC50 [2, 10] [µM]
1 | CC1(C)CC(=O)C2=C(Nc3n[nH]cc3C23CCN(S(=O)(=O)c2cccc(C(F)(F)F)c2)CC3)[C@@H]1F [Compound 951703] | ≤ 0.1 | 0.1 to 1 | ≤ 0.1 | 1 to 5 |  |  |  | 
2 | CC1(C)CC(=O)C2=C(Nc3n[nH]cc3C23CCCCC3)[C@@H]1F [Compound 951705] | ≤ 0.1 |  | ≤ 0.1 |  |  |  |  | 
3 | Cn1ccc(S(=O)(=O)N2CCC3(CC2)C2=C(Nc4n[nH]cc43)[C@@H](F)C(C)(C)CC2=O)n1 [Compound 951708] | ≤ 0.1 |  | 0.1 to 1 |  |  |  |  | 
4 | Cn1ccc(S(=O)(=O)N2CCC3(CC2)C2=C(Nc4n[nH]cc43)[C@H](F)C(C)(C)CC2=O)n1 [Compound 951709] | ≤ 0.1 |  | 0.1 to 1 |  |  |  |  | 
5 | CC1(C)CC(=O)C2=C(Nc3n[nH]cc3C23CCCCC3)[C@H]1F [Compound 951711] | ≤ 0.1 |  | ≤ 0.1 |  |  |  |  | 
6 | CC1(C)CC(=O)C2=C(Nc3n[nH]cc3C23CCN(S(=O)(=O)c2cccc(C(F)(F)F)c2)CC3)[C@H]1F [Compound 951713] | ≤ 0.1 | 0.1 to 1 | ≤ 0.1 | 1 to 5 |  |  |  | 
7 | CC(C)S(=O)(=O)N1CCC2(CC1)C1=C(Nc3n[nH]cc32)[C@@H](F)C(C)(C)CC1=O [Compound 951714] |  | 0.1 to 1 |  | 0.1 to 1 |  |  | ≤ 0.1 | ≤ 0.1
8 | CC1(C)CC(=O)C2=C(C1)Nc1n[nH]cc1[C@]21CCN(S(=O)(=O)CC2CC2)C1 [Compound 951723] |  | ≤ 0.1 |  | 0.1 to 1 |  |  | ≤ 0.1 | ≤ 0.1
9 | CC1(C)CC(=O)C2=C(C1)Nc1n[nH]cc1[C@@]21CCN(S(=O)(=O)CC2CC2)C1 [Compound 951724] | ≤ 0.1 |  | ≤ 0.1 |  |  |  |  | 
10 | Cn1cc(S(=O)(=O)N2CC[C@]3(C2)C2=C(CC(C)(C)CC2=O)Nc2n[nH]cc23)cn1 [Compound 951725] | ≤ 0.1 | 0.1 to 1 | ≤ 0.1 | 1 to 5 |  |  |  | 
11 | Cn1cc(S(=O)(=O)N2CC[C@@]3(C2)C2=C(CC(C)(C)CC2=O)Nc2n[nH]cc23)cn1 [Compound 951726] | ≤ 0.1 | 1 to 5 | ≤ 0.1 | 1 to 5 |  |  |  | 
12 | CC1(C)CC(=O)C2=C(C1)Nc1n[nH]cc1[C@]21CCN(S(=O)(=O)c2ccccc2)C1 [Compound 951787] |  | ≤ 0.1 |  | 0.1 to 1 |  |  | ≤ 0.1 | ≤ 0.1
13 | CC1(C)CC(=O)C2=C(C1)Nc1n[nH]cc1[C@@]21CCN(S(=O)(=O)c2ccccc2)C1 [Compound 951788] | ≤ 0.1 | 0.1 to 1 | ≤ 0.1 | 1 to 5 |  |  |  | 
14 | COc1cccc(S(=O)(=O)N2CC[C@]3(C2)C2=C(CC(C)(C)CC2=O)Nc2n[nH]cc23)c1 [Compound 951789] |  | 0.1 to 1 |  | 0.1 to 1 |  |  | ≤ 0.1 | ≤ 0.1
15 | COc1cccc(S(=O)(=O)N2CC[C@@]3(C2)C2=C(CC(C)(C)CC2=O)Nc2n[nH]cc23)c1 [Compound 951790] | ≤ 0.1 |  | ≤ 0.1 |  |  |  |  | 

Second part, the compound after the results:

Row | IC50 [1, 3] [µM] | IC50 [1, 4] [µM] | IC50 [2, 5] [µM] | IC50 [2, 6] [µM] | IC50 [1, 7] [µM] | IC50 [2, 8] [µM] | IC50 [1, 9] [µM] | IC50 [2, 10] [µM] | SMILES
16 |  |  |  |  | ≤ 0.1 | ≤ 0.1 |  |  | CC[C@]1(c2cccc(-c3cn(C)nc3C3CC3)c2)C2=C(CC(C)(C)NC2=O)Nc2n[nH]cc21 [Compound 951706]
17 |  |  |  |  | 0.1 to 1 | 1 to 5 |  |  | CC[C@]1(c2cccc(-c3cnn(C4CCCCC4)c3)c2)C2=C(CC(C)(C)NC2=O)Nc2n[nH]cc21 [Compound 951707]
18 |  |  |  |  | > 5 | > 5 |  |  | CC[C@@]1(c2cccc(-c3cn(C)nc3C)c2)C2=C(CC(C)(C)C2=O)Nc2n[nH]cc21 [Compound 951710]
19 |  |  |  |  | ≤ 0.1 | 0.1 to 1 |  |  | CC[C@]1(c2cccc(N(C)c3ncccn3)c2)C2=C(CC(C)(C)NC2=O)Nc2n[nH]c(C(F)F)c21 [Compound 951736]
20 |  |  |  |  | 0.1 to 1 | 1 to 5 |  |  | CCC1(c2cccc(-c3cnn(CC4CCOC4)c3)c2)C2=C(CC(C)(C)NC2=O)Nc2n[nH]cc21 (centres unmarked) [Compound 951836]
21 |  |  |  |  | 0.1 to 1 | 0.1 to 1 |  |  | CC[C@]1(c2cccc(-c3cnn(-c4ccccc4)c3C(F)(F)F)c2)C2=C(CC(C)(C)NC2=O)Nc2n[nH]cc21 [Compound 951837]
22 |  |  |  |  | 0.1 to 1 | 1 to 5 |  |  | CC[C@]1(c2cccc(-c3cnn(Cc4ccc(OC)cc4)c3)c2)C2=C(CC(C)(C)NC2=O)Nc2n[nH]cc21 [Compound 951838]

Source: patent publication US20250313563A1, “GLYCOGEN SYNTHASE KINASE 3 INHIBITORS AND USES THEREOF” (The Broad Institute, Inc., priority 2022, published 2025)
